The values below come from patent publication US20090010873A1, “Methods of Cell Therapy, Neurogenesis and Oligodendrogenesis” (YEDA RESEARCH AND DEVELOPMENT CO. LTD., priority 2004, published 2009).

Test [1] concerns APP/PS1 Tg mice. Put plainly: GA vaccination of APP/PS1 Tg mice: hippocampal histology (plaques, microglia, neurons, neurogenesis). In kind it is in vivo, mouse. As for the experimental part:
(xlviii) Glatiramer acetate vaccination. Each mouse was subcutaneously injected five times with a total of 100 μg of glatiramer acetate (GA (TV-5010), MW 13.5-18.5 kDa, average 16 kDa, Teva Pharmaceutical Industries Ltd., Petach Tikva, Israel), emulsified in 200 μl PBS×1, from experimental day 0 until day 24, twice during the first week and once a week thereafter.
(l) Administration of BrdU and tissue preparation. BrdU was dissolved by sonication in PBS and injected i.p. into each mouse (50 mg/kg body weight; 1.25 mg BrdU in 200 μl PBS×1). Starting from experimental day 22 after the first GA vaccination, BrdU was injected i.p. twice daily, every 12 h for 2.5 days, to label proliferating cells. Three weeks after the first BrdU injection the mice were deeply anesthetized and perfused transcardially, first with PBS and then with 4% paraformaldehyde. The whole brain was removed, postfixed overnight, and then equilibrated in phosphate-buffered 30% sucrose. Free-floating 30-μm sections were collected on a freezing microtome (Leica SM2000R) and stored at 4° C. prior to immunohistochemistry.
For immunohistochemistry, tissue sections were treated with a permeabilization/blocking solution containing 10% FCS, 2% bovine serum albumin, 1% glycine, and 0.05% Triton X-100 (Sigma-Aldrich, St. Louis). Tissue sections were stained overnight at 4° C. with specified combinations of the following primary antibodies: rat anti-BrdU (1:200; Oxford Biotechnology, Kidlington, Oxfordshire, UK), goat anti-DCX [doublecortin] (1:400; Santa Cruz Biotechnology), and mouse anti-NeuN [neuronal nuclear protein] (1:200; Chemicon, Temecula, Calif.). Secondary antibodies were FITC-conjugated donkey anti-goat, Cy-3-conjugated donkey anti-mouse, and Cy-3- or Cy-5-conjugated donkey anti-rat (1:200; Jackson ImmunoResearch, West Grove, Pa.). For labeling of microglia we used either CD11b (MAC1; 1:50; BD-Pharmingen) or FITC-conjugated Bandeiraea simplicifolia isolectin B4 (IB4, 1:50; Sigma-Aldrich, Rehovot). To detect expression of cell-surface MHC-II proteins we used anti-MHC-II Abs (rat, clone IBL-5/22; 1:50; Chemicon, Temecula, Calif.). To detect expression of human Aβ we used anti-Aβ (human amino-acid residues 1-17) (mouse, clone 6E10, Chemicon, Temecula, Calif.). Expression of IGF-I was detected by goat anti-IGF-I Abs (1:20; R&D Systems). Expression of TNF-α was detected by goat anti-TNF-α Abs (1:100; R&D Systems). T cells were detected with anti-CD3 polyclonal Abs (rabbit, 1:100; DakoCytomation, Calif.). Propidium iodide (1 μg/ml; Molecular Probes, Invitrogen, Carlsbad, Calif.) was used for nuclear staining.
For in-vivo experiments, the number of Aβ^+ plaques and CD11b^+/IB-4^+ microglia in the hippocampus were counted at 300-μm intervals from 6-8 coronal sections (30 μm) from each mouse. Neurogenesis in the DG was evaluated by counting of premature neurons (DCX^+), proliferating cells (BrdU^+), and newly formed mature neurons (BrdU^+/NeuN^+) in six coronal sections (30 μm) from each mouse. Specificity of BrdU^+/NeuN^+ co-expression was assayed using the confocal microscope (LSM 510) in optical sections at 1-μm intervals/. Cell counts, numbers of Aβ^+ plaques, plaque areas, and intensity of NeuN staining per unit area in the DG were evaluated automatically using Image-Pro Plus 4.5 software (Media Cybernetics).

Test [2] relates to APP/PS1 Tg mice. Put plainly: GA vaccination of APP/PS1 Tg mice: Morris water maze. It is filed as in vivo, mouse. The settings on record: five weeks after first GA injection, vs untreated Tg mice.

For glatiramer acetate [GA], in the test with APP/PS1 Tg mice [1] (6 weeks later, vs untreated Tg mice), the “number of Aβ plaques in hippocampus” value is on record as “significantly fewer plaques”. Further, the “newly formed mature neurons (BrdU^+/NeuN^+)” value in the test on APP/PS1 Tg mice [1] (compared to non-Tg littermates) is on record as “similar”. The “DCX^+ cells in dentate gyrus” value in the test on APP/PS1 Tg mice [1] (relative to non-Tg littermates) was “slightly but significantly more”. Further, in the test with APP/PS1 Tg mice [1] (vs untreated Tg mice), the “BrdU^+ cells in dentate gyrus” value was “significantly more BrdU^+ cells”, the “CD11b^+ microglia” value was “significantly fewer CD11b^+ microglia”, the “area occupied by the plaques” value is “significantly smaller” and the “staining for NeuN” value is given as “significantly more intense staining for NeuN”. Further, the “MWM performance (spatial learning/memory)” value in the test with APP/PS1 Tg mice [2] is on record as “superior to that of the untreated Tg mice”.
